Test results published in patent publication US7737143B2, “Substituted pyrazines as kinase inhibitors” (YM Biosciences Australia Pty Ltd, priority 2003, dated 2010).

How the values were obtained:
Format in all cases: biochemical
zap70 = molecular target: T1, zap70 (Homo sapiens, UniProt P43403); test: Kinase assay (ELISA or Alphascreen), zap70; conditions: standard conditions, read-out: zap70 inhibition of enzyme activity
T1 sequence (P43403 338-600 limits assumed): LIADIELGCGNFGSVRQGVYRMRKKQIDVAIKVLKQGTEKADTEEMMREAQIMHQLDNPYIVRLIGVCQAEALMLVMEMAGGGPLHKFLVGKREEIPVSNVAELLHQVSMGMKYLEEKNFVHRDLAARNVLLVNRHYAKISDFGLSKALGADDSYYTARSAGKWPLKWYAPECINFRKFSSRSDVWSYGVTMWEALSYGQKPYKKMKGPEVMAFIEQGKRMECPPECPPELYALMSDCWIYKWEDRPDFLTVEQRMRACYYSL
Protocol: (§1) Kinase assays were performed either in a 96 well capture-based ELISA assay or in 384 well Optiplates (Packard) using an Alphascreen Protein Tyrosine Kinase kit. In either case using approximately 15 μg of affinity purified PTK domain in the presence of 50 mM HEPES, pH 7.5, 10 mM MgCl2 150 mM NaCl and 10 μM-1 mM ATP. The biotinylated substrate biotin-EGPWLEEEEEAYGWMDF-NH2 (final concentration 5 μM) was used as substrate. In the ELISA assay tyrosine phosphorylation was quantitated following transfer to an avidin coated ELISA plate using peroxidase-linked anti-phospho-tyrosine antibody PY20. In the Alphascreen assay, Alphascreen phosphotyrosine acceptor beads followed by streptavidin donor beads were added under subdued light. The ELISA plates were read on a BMG Fluorostar, the Alphascreen plates were read on a Packard Fusion Alpha. Inhibitors were added to the assays fifteen minutes prior to the addition of ATP. Inhibitors were added in aqueous DMSO, with DMSO concentrations never exceeding 1%.

human JAK2 = molecular target: T2, human JAK2 (Homo sapiens, UniProt O60674); test: JAK kinase assay (ELISA or Alphascreen), Jak2; conditions: standard conditions, read-out: Jak2 inhibition of enzyme activity
T2 construct: The kinase domain of human JAK2 was amplified from U937mRNA; His tag (pFastBac HTc vector; nickel chelate purification) (N); made in house; host or cells: baculovirus; Sf9 for virus, High Five insect cells for production
T2 sequence (O60674 849-1124 limits assumed): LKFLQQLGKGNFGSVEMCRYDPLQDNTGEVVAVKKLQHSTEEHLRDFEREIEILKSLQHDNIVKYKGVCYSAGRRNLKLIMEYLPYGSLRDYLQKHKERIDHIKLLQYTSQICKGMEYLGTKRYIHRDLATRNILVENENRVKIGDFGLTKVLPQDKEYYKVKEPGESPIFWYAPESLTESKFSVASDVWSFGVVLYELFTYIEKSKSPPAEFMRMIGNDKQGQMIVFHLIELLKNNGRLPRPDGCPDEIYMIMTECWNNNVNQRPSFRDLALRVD
Description: The kinase domain of human JAK2 was amplified from U937mRNA using the polymerase chain reaction with the following primers: […]
JAK2 PCR products were cloned into the pFastBac HTc expression vector (Gibco) via the Sal I and Not I sites. The JAK2 plasmid was then transformed into competent DHL10Bac cells (Gibco), and the recombinant baculovirus produced prepared for transfection into Sf9 insect cells.
(§2) Baculovirus preparations from each of the JAK family members were infected into five litres of High Five cells (Invitrogen) grown in High Five serum free medium (Invitrogen) to a cell density of approximately 1-2×10^6 cells/ml. Cells are infected with virus at a MOI of 0.8-3.0. Cells were harvested and lysed. JAK kinase domains were purified by affinity chromatography on a Probond (Invitrogen) nickel chelate affinity column.
as §1

human JAK3 = molecular target: T3, human JAK3 (Homo sapiens, UniProt P52333); test: JAK kinase assay (ELISA or Alphascreen), Jak3; conditions: standard conditions, read-out: Jak3 inhibition of enzyme activity
T3 construct: The kinase domain of human JAK3 was amplified from U937mRNA; His tag (pFastBac HTb vector; nickel chelate purification) (N); made in house; host or cells: baculovirus; Sf9 for virus, High Five insect cells for production
T3 sequence (P52333 822-1111 limits assumed): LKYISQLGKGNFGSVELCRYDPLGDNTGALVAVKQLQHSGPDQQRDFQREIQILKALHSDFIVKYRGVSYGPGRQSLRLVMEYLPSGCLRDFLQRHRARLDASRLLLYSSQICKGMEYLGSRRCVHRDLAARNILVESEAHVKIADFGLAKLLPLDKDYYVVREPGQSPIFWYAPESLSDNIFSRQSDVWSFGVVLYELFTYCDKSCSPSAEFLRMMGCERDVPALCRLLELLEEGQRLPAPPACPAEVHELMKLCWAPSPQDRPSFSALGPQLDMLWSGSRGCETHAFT
Description: The kinase domain of human JAK3 was amplified from U937mRNA using the polymerase chain reaction with the following primers: […]
JAK3 PCR products were cloned into the pFastBac HTb expression vector (Gibco) via the Xho I and Kpn I sites. The JAK3 plasmid was then transformed into competent DH10Bac cells (Gibco), and the recombinant baculovirus produced prepared for transfection into Sf9 insect cells.
as §2, §1

abl = molecular target: T4, abl (Homo sapiens, UniProt P00519); test: Kinase assay (ELISA or Alphascreen), abl; conditions: standard conditions, read-out: abl inhibition of enzyme activity
T4 sequence (P00519 242-493 limits assumed): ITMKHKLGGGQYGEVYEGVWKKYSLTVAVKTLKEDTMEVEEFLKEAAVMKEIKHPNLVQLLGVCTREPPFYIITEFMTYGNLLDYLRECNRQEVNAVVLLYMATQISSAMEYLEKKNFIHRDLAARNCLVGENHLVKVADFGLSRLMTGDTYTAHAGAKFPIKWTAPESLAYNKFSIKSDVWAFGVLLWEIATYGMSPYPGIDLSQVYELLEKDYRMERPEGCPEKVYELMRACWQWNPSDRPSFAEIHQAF
Protocol: as §1

hck = hck (Homo sapiens, UniProt P08631); test: Kinase assay (ELISA or Alphascreen), hck; conditions: standard conditions, read-out: hck inhibition of enzyme activity
hck, sequence (P08631 262-515 limits assumed, species assumed): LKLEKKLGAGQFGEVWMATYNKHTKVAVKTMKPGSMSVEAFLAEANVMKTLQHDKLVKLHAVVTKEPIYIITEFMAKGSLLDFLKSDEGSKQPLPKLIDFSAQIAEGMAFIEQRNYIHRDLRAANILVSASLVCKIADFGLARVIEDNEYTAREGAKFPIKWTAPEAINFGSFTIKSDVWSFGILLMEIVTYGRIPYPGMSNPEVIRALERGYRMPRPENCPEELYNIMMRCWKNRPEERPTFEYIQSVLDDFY
Protocol: as §1

kdr = kdr (Homo sapiens, UniProt P35968); test: Kinase assay (ELISA or Alphascreen), kdr; conditions: standard conditions, read-out: kdr inhibition of enzyme activity
kdr, sequence (P35968 834-1162 limits assumed, species assumed): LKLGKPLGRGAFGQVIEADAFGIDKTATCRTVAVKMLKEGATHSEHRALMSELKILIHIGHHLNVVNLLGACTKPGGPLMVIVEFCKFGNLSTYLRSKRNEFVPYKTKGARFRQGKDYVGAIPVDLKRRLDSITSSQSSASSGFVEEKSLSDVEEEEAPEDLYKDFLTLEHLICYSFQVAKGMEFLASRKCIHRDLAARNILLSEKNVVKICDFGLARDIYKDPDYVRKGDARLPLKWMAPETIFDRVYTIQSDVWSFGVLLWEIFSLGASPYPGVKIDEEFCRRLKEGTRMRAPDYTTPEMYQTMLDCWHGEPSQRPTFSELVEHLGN
Protocol: as §1

btk = btk (Homo sapiens, UniProt Q06187); test: Kinase assay (ELISA or Alphascreen), btk; conditions: standard conditions, read-out: btk inhibition of enzyme activity
btk, sequence (Q06187 402-655 limits assumed, species assumed): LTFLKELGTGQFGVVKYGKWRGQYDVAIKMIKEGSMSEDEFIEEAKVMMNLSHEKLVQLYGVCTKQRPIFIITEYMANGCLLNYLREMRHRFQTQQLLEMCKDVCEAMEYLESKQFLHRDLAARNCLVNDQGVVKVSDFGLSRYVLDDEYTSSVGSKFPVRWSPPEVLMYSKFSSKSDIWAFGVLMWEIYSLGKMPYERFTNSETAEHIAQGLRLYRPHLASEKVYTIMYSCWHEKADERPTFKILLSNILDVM
Protocol: as §1

fms = molecular target: T5, fms (Homo sapiens, UniProt P07333); test: Kinase assay (ELISA or Alphascreen), fms; conditions: standard conditions, read-out: fms inhibition of enzyme activity
T5 sequence (P07333 582-910 limits assumed): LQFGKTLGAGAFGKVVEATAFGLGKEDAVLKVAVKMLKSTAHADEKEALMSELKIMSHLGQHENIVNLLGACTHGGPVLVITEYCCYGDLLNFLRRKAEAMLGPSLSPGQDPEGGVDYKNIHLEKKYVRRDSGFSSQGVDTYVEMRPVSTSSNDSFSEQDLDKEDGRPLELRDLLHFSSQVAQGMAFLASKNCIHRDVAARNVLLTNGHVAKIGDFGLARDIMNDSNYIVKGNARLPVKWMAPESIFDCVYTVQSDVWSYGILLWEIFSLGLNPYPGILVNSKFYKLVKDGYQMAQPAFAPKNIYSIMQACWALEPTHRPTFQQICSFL
Protocol: as §1

tie2 = tie2 (Homo sapiens, UniProt Q02763); test: Kinase assay (ELISA or Alphascreen), tie2; conditions: standard conditions, read-out: tie2 inhibition of enzyme activity
tie2, sequence (Q02763 824-1096 limits assumed, species assumed): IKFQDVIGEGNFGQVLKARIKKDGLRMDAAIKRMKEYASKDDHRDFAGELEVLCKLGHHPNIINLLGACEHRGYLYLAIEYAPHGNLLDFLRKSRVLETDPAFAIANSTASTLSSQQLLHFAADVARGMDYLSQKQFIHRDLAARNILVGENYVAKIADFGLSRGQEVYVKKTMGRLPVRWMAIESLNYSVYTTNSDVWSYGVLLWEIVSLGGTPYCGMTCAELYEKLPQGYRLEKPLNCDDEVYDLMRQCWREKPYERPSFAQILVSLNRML
Protocol: as §1

Row | SMILES | inhibition at 20 µM (zap70) [%] | inhibition at 20 µM (human JAK2) [%] | inhibition at 20 µM (human JAK3) [%] | inhibition at 20 µM (abl) [%] | inhibition at 20 µM (hck) [%] | inhibition at 20 µM (kdr) [%] | inhibition at 20 µM (btk) [%] | inhibition at 20 µM (fms) [%] | inhibition at 20 µM (tie2) [%]
1 | CC[C@H](Nc1cncc(-n2cnc3ccccc32)n1)c1ccccc1 | ≥ 50 | ≥ 50 | < 50 | ≥ 50 | – | – | – | – | –
2 | C[C@H](Nc1cncc(-n2cnc3cc(NC(=O)N4CCN(C)CC4)ccc32)n1)c1ccccc1 | ≥ 50 | ≥ 50 | < 50 | ≥ 50 | ≥ 50 | ≥ 50 | – | – | –
3 | COc1cc(-c2cncc(-n3cnc4ccccc43)n2)ccc1O | – | < 50 | < 50 | ≥ 50 | – | – | – | – | –
4 | C[C@H](Nc1cncc(-n2cnc3cc(C(=O)NCCCCN4CCOCC4)ccc32)n1)c1ccccc1 | ≥ 50 | ≥ 50 | < 50 | ≥ 50 | – | – | – | – | –
5 | C[C@H](Nc1cncc(-n2cnc3ccc(CO)cc32)n1)c1ccc(F)cc1 | – | ≥ 50 | < 50 | – | ≥ 50 | – | ≥ 50 | – | –
6 | CC(Nc1cncc(-n2cnc3cc(C#N)ccc32)n1)c1cccc2ccccc12 (stereo not shown) | – | < 50 | < 50 | – | – | – | – | ≥ 50 | –
7 | CCNC(=O)Nc1ccc2c(c1)ncn2-c1cncc(N[C@@H](C)c2ccccc2)n1 | – | ≥ 50 | < 50 | – | – | – | – | ≥ 50 | –
8 | CC(Nc1cncc(-n2cnc3ccc(C#N)cc32)n1)c1cccnc1 (stereo not shown) | – | < 50 | < 50 | ≥ 50 | – | – | – | – | –
9 | N#Cc1ccc2c(c1)ncn2-c1cncc(N[C@H]2CCCc3ccccc32)n1 | – | ≥ 50 | ≥ 50 | – | – | – | – | ≥ 50 | –
10 | CC(Nc1cncc(-n2cnc3cc(C#N)ccc32)n1)c1ccccc1F (stereo not shown) | – | ≥ 50 | ≥ 50 | – | – | – | – | ≥ 50 | –
11 | CC[C@H](Nc1cncc(-n2cnc3cc(C#N)ccc32)n1)c1ccccc1 | – | ≥ 50 | ≥ 50 | – | – | ≥ 50 | – | – | ≥ 50
12 | CC1CC(Nc2cncc(-n3cnc4cc(C#N)ccc43)n2)c2ccccc21 (stereo not shown) | – | ≥ 50 | ≥ 50 | – | – | – | – | ≥ 50 | –
